Laboratory results as given in patent publication US8431593B2, “Heteroaryl amide derivatives” (H. Lundbeck A/S, priority 2006, dated 2013).

Target: T1, P2X7 receptor (Homo sapiens, UniProt Q99572)
T1 construct: host or cells: SH-SY5Y
T1 sequence (Q99572 1-595): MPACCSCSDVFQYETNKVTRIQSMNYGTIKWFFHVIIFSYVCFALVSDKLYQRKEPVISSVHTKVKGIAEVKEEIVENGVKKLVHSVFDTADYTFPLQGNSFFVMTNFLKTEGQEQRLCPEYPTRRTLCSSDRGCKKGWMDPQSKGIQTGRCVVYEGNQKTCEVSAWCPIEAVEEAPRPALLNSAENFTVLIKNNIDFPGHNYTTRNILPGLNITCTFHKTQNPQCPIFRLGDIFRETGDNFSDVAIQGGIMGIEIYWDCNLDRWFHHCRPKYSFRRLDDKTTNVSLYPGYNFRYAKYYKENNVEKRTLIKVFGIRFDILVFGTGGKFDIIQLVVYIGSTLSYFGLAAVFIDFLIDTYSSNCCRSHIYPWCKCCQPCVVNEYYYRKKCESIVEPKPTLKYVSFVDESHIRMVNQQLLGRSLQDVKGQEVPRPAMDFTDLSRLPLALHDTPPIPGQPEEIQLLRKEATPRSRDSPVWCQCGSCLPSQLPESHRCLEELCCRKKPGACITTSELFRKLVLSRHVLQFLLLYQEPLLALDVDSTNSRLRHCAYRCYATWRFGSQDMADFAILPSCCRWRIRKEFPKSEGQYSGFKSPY
Test: P2X7 calcium mobilization assay, high throughput, antagonist activity (Example 4A)
Type: cell-based
Details: 50% decrease in the fluorescence response of cells exposed to 80 μM 2′(3′)-O-(4-benzoyl-benzoyl)adenosine 5′-triphosphate; Example 4A; read-out: IC50
Outline: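 FLIPR^TETRA calcium read-out: maximum RFU per well minus average no-agonist control, with agonist wells giving the average positive maximum. Cells seeded at 100,000/well one day ahead, dye-loaded 1 h, rinsed, then exposed to compound for 1 h at room temperature.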

IC50, < 2000 nM:
CC1(C)[C@@H]2CC[C@@H](CNC(=O)c3cccc4nc(CC(=O)NC5CCNC5)cn34)[C@H]1C2 (stereo partly drawn) [Compound 591, N-{[(1R,2R,5R)-6,6-dimethylbicyclo[3.1.1]hept-2-yl]methyl}-2-[2-oxo-2-(pyrrolidin-3-ylamino)ethyl]imidazo [1,2-a]pyridine-5-carboxamide]
CC1(C)[C@@H]2CC[C@@H](CNC(=O)c3cccc4nc(CC(=O)NC5CCNCC5)cn34)[C@H]1C2 [Compound 592, N-{[(1R,2R,5R)-6,6-dimethylbicyclo[3.1.1]hept-2-yl]methyl}-2-[2-oxo-2-(piperidin-4-ylamino)ethyl]imidazo [1,2-a]pyridine-5-carboxamide]
CC1(C)[C@@H]2CC[C@@H](CNC(=O)c3cccc4nc(CC(=O)N5CCOC(CN)C5)cn34)[C@H]1C2 (stereo partly drawn) [Compound 594, 2-{2-[2-(aminomethyl)morpholin-4-yl]-2-oxoethyl}-N-{[(1R,2R,5R)-6,6-dimethylbicyclo [3.1.1]hept-2-yl]methyl}imidazo[1,2-a]pyridine-5-carboxamide]
Cc1cc(-c2cn3c(C(=O)NCC(CC(C)C)c4cccnc4)cccc3n2)n[nH]1 (stereo not drawn) [Compound 595, 2-(5-methyl-1H-pyrazol-3-yl)-N-(4-methyl-2-pyridin-3-ylpentyl)imidazo[1,2-a]pyridine-5-carboxamide]
CNCc1cn2c(C(=O)NCC34CC5CC(CC(C5)C3)C4)cccc2n1 [Compound 596, N-(adamantan-1-ylmethyl)-2-[(methylamino)methyl] imidazo[1,2-a] pyridine-5-carboxamide]
CC(C)NCc1cn2c(C(=O)NCC34CC5CC(CC(C5)C3)C4)cccc2n1 [Compound 597, N-(adamantan-1-ylmethyl)-2-[(isopropylamino)methyl]imidazo [1,2-a]pyridine-5-carboxamide]
N#CCc1cn2c(C(=O)NCC34CC5CC(CC(C5)C3)C4)cccc2n1 [Compound 598, N-(adamantan-1-ylmethyl)-2-(cyanomethyl)imidazo [1,2-a]pyridine-5-carboxamide]
O=C(NCC12CC3CC(CC(C3)C1)C2)c1cccc2nc(CCI)cn12 [Compound 599, N-(adamantan-1-ylmethyl)-2-(2-iodoethyl)imidazo[1,2-a]pyridine-5-carboxamide]
C[C@@H]1CNCCN1C(=O)c1cn2c(C(=O)NCC34CC5CC(CC(C5)C3)C4)cccc2n1 [Compound 600, N-(adamantan-1-ylmethyl)-2-{[(2R)-2-methylpiperazin-1-yl]carbonyl}imidazo[1,2-a]pyridine-5-carboxamide]
C[C@H]1CNCCN1C(=O)c1cn2c(C(=O)NCC34CC5CC(CC(C5)C3)C4)cccc2n1 [Compound 601, N-(adamantan-1-ylmethyl)-2-{[(2S)-2-methylpiperazin-1-yl]carbonyl}imidazo [1,2-a]pyridine-5-carboxamide]
CC1CNCCN1C(=O)c1cn2c(C(=O)NCC34CC5CC(CC(C5)C3)C4)cccc2n1 (stereo not drawn) [Compound 602, N-(adamantan-1-ylmethyl)-2-[(2-methylpiperazin-1-yl)carbonyl]imidazo[1,2-a]pyridine-5-carboxamide]
O=C(NCC12CC3CC(CC(C3)C1)C2)c1cccc2nc(C(=O)N3CCNCC3)cn12 [Compound 603, N-(adamantan-1-ylmethyl)-2-(piperazin-1-ylcarbonyl) imidazo[1,2-a]pyridine-5-carboxamide]
C[C@@H]1CN(C(=O)c2cn3c(C(=O)NCC45CC6CC(CC(C6)C4)C5)cccc3n2)CCN1 [Compound 604, N-(adamantan-1-ylmethyl)-2-{[(3R)-3-methylpiperazin-1-yl]carbonyl}imidazo[1,2-a]pyridine-5-carboxamide]
CN(C(=O)c1cn2c(C(=O)NCC34CC5CC(CC(C5)C3)C4)cccc2n1)C1CCCNC1 (stereo not drawn) [Compound 605, 5-N-(adamantan-1-ylmethyl)-2-N-methyl-2-N-piperidin-3-ylimidazo[1,2-a]pyridine-2,5-dicarboxamide]
CN(C(=O)c1cn2c(C(=O)NCC34CC5CC(CC(C5)C3)C4)cccc2n1)C1CCNCC1 [Compound 606, 5-N-(adamantan-1-ylmethyl)-2-N-methyl-2-N-piperidin-4-ylimidazo[1,2-a]pyridine-2,5-dicarboxamide]
O=C(NCC12CC3CC(CC(C3)C1)C2)c1cccc2nc(C(=O)N3CCCNCC3)cn12 [Compound 608, N-(adamantan-1-ylmethyl)-2-(1,4-diazepan-1-ylcarbonyl)imidazo[1,2-a]pyridine-5-carboxamide]
O=C(NCC12CC3CC(CC(C3)C1)C2)c1cccc2nc(C(=O)N3C[C@@H]4C[C@H]3CN4)cn12 [Compound 609, N-(adamantan-1-ylmethyl)-2-[(1S,4S)-2,5-diazabicyclo [2.2.1]hept-2-ylcarbonyl]imidazo[1,2-a]pyridine-5-carboxamide]
CN(C)CCCN(C(=O)c1cn2c(C(=O)NCC34CC5CC(CC(C5)C3)C4)cccc2n1)C1CCNCC1 [Compound 610, 5-N-(adamantan-1-ylmethyl)-2-N-[3-(dimethylamino)propyl]-2-N-piperidin-4-ylimidazo[1,2-a]pyridine-2,5-dicarboxamide]
CNC1CCN(C(=O)c2cn3c(C(=O)NCC45CC6CC(CC(C6)C4)C5)cccc3n2)C1 (stereo not drawn) [Compound 611, N-(adamantan-1-ylmethyl)-2-{[3-(methylamino)pyrrolidin-1-yl]carbonyl}imidazo[1,2-a]pyridine-5-carboxamide]
CC(C)[C@H]1CNCCN1C(=O)c1cn2c(C(=O)NCC34CC5CC(CC(C5)C3)C4)cccc2n1 [Compound 612, N-(adamantan-1-ylmethyl)-2-{[(2S)-2-isopropylpiperazin-1-yl]carbonyl}imidazo[1,2-a]pyridine-5-carboxamide]
CC(C)[C@@H]1CNCCN1C(=O)c1cn2c(C(=O)NCC34CC5CC(CC(C5)C3)C4)cccc2n1 [Compound 613, N-(adamantan-1-ylmethyl)-2-{[(2R)-2-isopropylpiperazin-1-yl]carbonyl}imidazo[1,2-a]pyridine-5-carboxamido]
CC(C)[C@@H]1CN(C(=O)c2cn3c(C(=O)NCC45CC6CC(CC(C6)C4)C5)cccc3n2)CCN1 [Compound 614, N-(adamantan-1-ylmethyl)-2-{[(3R)-3-isopropylpiperazin-1-yl]carbonyl}imidazo[1,2-a]pyridine-5-carboxamide]
CC(C)[C@H]1CN(C(=O)c2cn3c(C(=O)NCC45CC6CC(CC(C6)C4)C5)cccc3n2)CCN1 [Compound 615, N-(adamantan-1-ylmethyl)-2-{[(3S)-3-isopropylpiperazin-1-yl]carbonyl}imidazo[1,2-a]pyridine-5-carboxamide]
C[C@H]1CN(C(=O)c2cn3c(C(=O)NCC45CC6CC(CC(C6)C4)C5)cccc3n2)CCN1 [Compound 616, N-(adamantan-1-ylmethyl)-2-{[(3S)-3-methylpiperazin-1-yl]carbonyl}imidazo[1,2-a]pyridine-5-carboxamide]
CN(C)CCN(C(=O)c1cn2c(C(=O)NCC34CC5CC(CC(C5)C3)C4)cccc2n1)C1CCNCC1 [Compound 617, 5-N-(adamantan-1-ylmethyl)-2-N-[2-(dimethylamino)ethyl]-2-N-piperidin-4-ylimidazo[1,2-a]pyridine-2,5-dicarboxamide]

Same assay, conditions: 50% decrease in the fluorescence response of cells exposed to 80 μM of 2′(3′)-O-(4-benzoyl-benzoyl)adenosine 5′-triphosphate; Example 4A; read-out: IC50

IC50, < 2000 nM:
COCCN(C(=O)c1cn2c(C(=O)NCC34CC5CC(CC(C5)C3)C4)cccc2n1)C1CCNCC1 [Compound 618, 5-N-(adamantan-1-ylmethyl)-2-N-(2-methoxyethyl)-2-N-piperidin-4-yl imidazo[1,2-a]pyridine-2,5-dicarboxamide]
COCCCN(C(=O)c1cn2c(C(=O)NCC34CC5CC(CC(C5)C3)C4)cccc2n1)C1CCNCC1 [Compound 619, 5-N-(adamantan-1-ylmethyl)-2-N-(3-methoxypropyl)-2-N-piperidin-4-ylimidazo[1,2-a]pyridine-2,5-dicarboxamide]
CN(C)CCN(C(=O)c1cn2c(C(=O)NCC34CC5CC(CC(C5)C3)C4)cccc2n1)C1CCNCC1(C)C (stereo not drawn) [Compound 620, 5-N-(adamantan-1-ylmethyl)-2-N-[2-(dimethylamino)ethyl]-2-N-(3,3-dimethylpiperidin-4-yl)imidazo[1,2-a]pyridine-2,5-dicarboxamide]
CN(C)CCCN(C(=O)c1cn2c(C(=O)NCC34CC5CC(CC(C5)C3)C4)cccc2n1)C1CCNCC1(C)C (stereo not drawn) [Compound 621, 5-N-(adamantan-1-ylmethyl)-2-N-[3-(dimethylamino)propyl]-2-N-(3,3-dimethylpiperidin-4-yl)imidazo[1,2-a]pyridine-2,5-dicarboxamide]
NCC1CCCN1C(=O)c1cn2c(C(=O)NCC34CC5CC(CC(C5)C3)C4)cccc2n1 (stereo not drawn) [Compound 622, N-(adamantan-1-ylmethyl)-2-{[2-(aminomethyl)pyrrolidin-1-yl]carbonyl} imidazo[1,2-a]pyridine-5-carboxamide]
